Test results: ChEMBL document CHEMBL4118141, “Design, synthesis and biological evaluation of novel hydrogen sulfide releasing capsaicin derivatives” (Bioorg Med Chem, 2018)
Activity calls are given as the source filed them. The calls are words filed in the database; no cut-off is given here.

Assays:
[1] = target: Transient receptor potential cation channel subfamily V member 1 (Homo sapiens) (UniProt Q8NER1); experiment: Agonist activity at human TRPV1 expressed in HEK293 cells assessed as increase in calcium influx by measuring ratio of 340/380 nm excitatory wavelength at 10 uM treated for 2 mins by Fura-2AM dye-based fluorescence assay; type: cell-based
Transient receptor potential cation channel subfamily V member 1 (Homo sapiens), sequence (Q8NER1 whole entry): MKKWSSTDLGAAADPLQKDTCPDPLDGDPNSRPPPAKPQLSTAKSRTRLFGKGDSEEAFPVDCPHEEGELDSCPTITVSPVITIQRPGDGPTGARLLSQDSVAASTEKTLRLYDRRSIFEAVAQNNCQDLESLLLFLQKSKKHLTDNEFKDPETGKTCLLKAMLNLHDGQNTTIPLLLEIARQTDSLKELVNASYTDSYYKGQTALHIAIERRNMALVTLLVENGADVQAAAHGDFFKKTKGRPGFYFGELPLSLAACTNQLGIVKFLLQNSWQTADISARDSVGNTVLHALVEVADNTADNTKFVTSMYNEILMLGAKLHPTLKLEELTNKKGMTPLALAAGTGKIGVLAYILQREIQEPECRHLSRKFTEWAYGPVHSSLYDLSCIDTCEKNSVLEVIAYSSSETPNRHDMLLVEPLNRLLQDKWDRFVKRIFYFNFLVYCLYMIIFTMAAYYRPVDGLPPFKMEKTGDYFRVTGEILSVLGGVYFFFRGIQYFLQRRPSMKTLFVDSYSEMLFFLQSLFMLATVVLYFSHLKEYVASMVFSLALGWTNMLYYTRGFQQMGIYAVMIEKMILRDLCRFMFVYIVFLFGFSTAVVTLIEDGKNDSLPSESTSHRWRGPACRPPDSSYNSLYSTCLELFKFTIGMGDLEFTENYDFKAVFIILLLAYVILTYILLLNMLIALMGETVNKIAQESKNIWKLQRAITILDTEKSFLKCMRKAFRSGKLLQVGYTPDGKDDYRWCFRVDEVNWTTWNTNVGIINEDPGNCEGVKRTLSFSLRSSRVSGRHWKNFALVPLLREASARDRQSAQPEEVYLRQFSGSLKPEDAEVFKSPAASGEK

[2] = tested on: K562; experiment: Antiproliferative activity against human K562 cells after 48 hrs by MTT assay; type: functional, cell-based; conditions: K562, 48 h
[3] = tested on: HeLa; experiment: Antiproliferative activity against human HeLa cells after 48 hrs by MTT assay; type: functional, cell-based
[4] = tested on: MCF7; experiment: Antiproliferative activity against human MCF7 cells after 48 hrs by MTT assay; type: functional, cell-based; conditions: MCF7, 48 h
[5] = tested on: Mus musculus; experiment: Antinociceptive activity in capsaicin-induced nociception pain Kunming mouse model assessed as reduction in time spent in paw licking at 60 mg/kg, po pretreated for 30 mins followed by capsaicin challenge measured for 5 mins post capsaicin challenge; type: functional, organism-based
[6] = tested on: Mus musculus; experiment: Antinociceptive activity in Kunming mouse model assessed as inhibition of acetic acid-induced writhes at 60 mg/kg, po pretreated for 30 mins followed by acetic acid challenge measured for 15 mins post acetic acid challenge; type: functional, organism-based
[7] = tested on: Mus musculus; experiment: Ulcerogenic activity in Kunming mouse assessed as lesion in stomach at 30 mg/kg, po qd for 6 days measured on day 7 by microscopic analysis; type: toxicity, organism-based; conditions: in vivo, 144 h
[8] = tested on: Mus musculus; experiment: Antinociceptive activity in Kunming mouse model of thermal-induced nociception assessed as increase in latency to tail withdrawal at 60 mg/kg, po by tail flick test; type: functional, organism-based
[9] = Acute toxicity in po dosed CD rat measured for 7 days; type: organism-based; conditions: in vivo

Ratio [1] | IC50 [2] | IC50 [3] | IC50 [4] | SMILES | Activity [5] | inhibition [6] | Activity [7] | Activity [8] | LD50 at 168 h [9]
1.59 | > 50 µM | 40.7 µM | 4.99 µM | COc1cc(CNC(=O)CCCCCCC(C)C)ccc1OCCCCOc1ccc(C(N)=S)cc1 | Active | Active |  |  | 
1.77 | > 50 µM | 39.6 µM | 39.4 µM | COc1cc(CNC(=O)CCCC/C=C/C(C)C)ccc1OC(=O)c1ccc(C(N)=S)cc1 | Active | Active | Non-Toxic |  | 
1.87 | > 50 µM | 46.4 µM | 17.2 µM | COc1cc(CNC(=O)CCCC/C=C/C(C)C)ccc1OCCCCCOc1ccc(C(N)=S)cc1 | Active | Active |  |  | 
 |  |  |  | CC(C)(C)c1ccc(NC(=O)N2CCN(c3ncccc3Cl)CC2)cc1 |  |  |  | Active | 
1.96 | 5.93 µM | 5.53 µM | 2.56 µM | COc1cc(CNC(=O)CCCCCCC(C)C)ccc1OC(=O)CCC(=O)Oc1ccc(-c2cc(=S)ss2)cc1 | Active | Active |  |  | 
2.1 | 4.45 µM | 4.25 µM | 2.12 µM | COc1cc(CNC(=O)CCCC/C=C/C(C)C)ccc1OC(=O)CCC(=O)Oc1ccc(-c2cc(=S)ss2)cc1 | Active | Active | Non-Toxic | Active | 
1.69 | > 50 µM | > 50 µM | > 50 µM | COc1cc(CNC(=O)CCCCCCC(C)C)ccc1OC(=O)c1ccc(C(N)=S)cc1 | Active | Active |  |  | 
1.71 | > 50 µM | > 50 µM | > 50 µM | COc1cc(CNC(=O)CCCC/C=C/C(C)C)ccc1OCCCCCOc1ccc(-c2cc(=S)ss2)cc1 | Active | Active |  |  | 
1.7 | > 50 µM | > 50 µM | 49.8 µM | COc1cc(CNC(=O)CCCC/C=C/C(C)C)ccc1OCCCCOc1ccc(C(N)=S)cc1 | Active | Active |  |  | 
1.69 | > 50 µM | 44.6 µM | 49.5 µM | COc1cc(CNC(=O)CCCCCCC(C)C)ccc1OCCCCOc1ccc(-c2cc(=S)ss2)cc1 | Active | Active |  |  | 
1.76 | > 50 µM | > 50 µM | 49.3 µM | COc1cc(CNC(=O)CCCCCCC(C)C)ccc1OCCCCCOc1ccc(C(N)=S)cc1 | Active | Active |  |  | 
1.87 |  | > 50 µM |  | COc1cc(CNC(=O)CCCCCCC(C)C)ccc1OC(=O)CCC(=O)Oc1ccc(C(N)=S)cc1 | Active | Active |  |  | 
1.94 | > 50 µM | > 50 µM | > 50 µM | COc1cc(CNC(=O)CCCC/C=C/C(C)C)ccc1OC(=O)CCC(=O)Oc1ccc(C(N)=S)cc1 | Active | Active | Non-Toxic |  | 
1.69 | > 50 µM | > 50 µM | 48.6 µM | COc1cc(CNC(=O)CCCCCCC(C)C)ccc1OCCCCCOc1ccc(-c2cc(=S)ss2)cc1 | Active | Active |  |  | 
1.96 | > 50 µM | 47.1 µM | 36.4 µM | COc1cc(CNC(=O)CCCC/C=C/C(C)C)ccc1OCCCCOc1ccc(-c2cc(=S)ss2)cc1 | Active | Active | Non-Toxic | Active | 

SMILES | Ratio [1] | IC50 [2] | IC50 [3] | IC50 [4] | Activity [5] | inhibition [6] | Activity [7] | Activity [8] | LD50 at 168 h [9]
COc1cc(CNC(=O)CCCC/C=C/C(C)C)ccc1O [CAPSAICIN] |  | 49.4 µM | > 50 µM | 50 µM |  |  | Toxic |  | 161 mg/kg
COc1cccc2c1C(=O)c1c(O)c3c(c(O)c1C2=O)C[C@@](O)(C(=O)CO)C[C@@H]3O[C@H]1C[C@H](N)[C@H](O)[C@H](C)O1 [DOXORUBICIN] |  | 1.51 µM | 0.451 µM |  |  |  |  |  | 
COc1cc(CNC(=O)CCCCCCC(C)C)ccc1O [DIHYDROCAPSAICIN] | 2 | > 50 µM | > 50 µM | > 50 µM |  |  |  |  | 
